The text below walks through data of ChEMBL document CHEMBL4507319 (2021).

In test [1] the target is T1, Serine/threonine-protein kinase Nek3 (Homo sapiens) (UniProt P51956).
T1 sequence (whole entry): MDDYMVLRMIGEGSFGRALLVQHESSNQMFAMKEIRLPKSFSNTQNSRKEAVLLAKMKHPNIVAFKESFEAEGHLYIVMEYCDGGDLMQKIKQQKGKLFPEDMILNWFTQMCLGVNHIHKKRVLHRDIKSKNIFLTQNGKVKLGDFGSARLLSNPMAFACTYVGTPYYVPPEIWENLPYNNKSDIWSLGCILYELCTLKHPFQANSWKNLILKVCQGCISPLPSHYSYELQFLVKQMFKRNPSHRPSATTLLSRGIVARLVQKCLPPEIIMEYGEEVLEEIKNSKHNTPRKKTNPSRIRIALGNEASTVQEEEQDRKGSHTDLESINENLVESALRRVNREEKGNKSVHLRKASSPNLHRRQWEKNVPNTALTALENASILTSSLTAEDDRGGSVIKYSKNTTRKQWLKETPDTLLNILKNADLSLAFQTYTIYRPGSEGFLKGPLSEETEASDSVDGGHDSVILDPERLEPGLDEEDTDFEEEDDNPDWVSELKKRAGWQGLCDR
The note with it: Compound concentration 1000.0 nM.

Test [2] relates to Receptor-type tyrosine-protein kinase FLT3 (Homo sapiens), P36888 [N841I]. The note with it: Compound concentration 1000.0 nM.
Test [3] has as its target 5'-AMP-activated protein kinase catalytic subunit alpha-1 (Homo sapiens, UniProt Q13131). Briefly: Cellular mechanistic pACC assay using IMR-32 neuroblastoma cells. Format: cell-based.
For test [4], the system named is Epidermal growth factor receptor (Homo sapiens), P00533 [UNDEFINED MUTATION]. The note with it: Compound concentration 1000.0 nM.
Sequence of Epidermal growth factor receptor (Homo sapiens), P00533 [UNDEFINED MUTATION] (P00533 whole entry, looked up, change not shown): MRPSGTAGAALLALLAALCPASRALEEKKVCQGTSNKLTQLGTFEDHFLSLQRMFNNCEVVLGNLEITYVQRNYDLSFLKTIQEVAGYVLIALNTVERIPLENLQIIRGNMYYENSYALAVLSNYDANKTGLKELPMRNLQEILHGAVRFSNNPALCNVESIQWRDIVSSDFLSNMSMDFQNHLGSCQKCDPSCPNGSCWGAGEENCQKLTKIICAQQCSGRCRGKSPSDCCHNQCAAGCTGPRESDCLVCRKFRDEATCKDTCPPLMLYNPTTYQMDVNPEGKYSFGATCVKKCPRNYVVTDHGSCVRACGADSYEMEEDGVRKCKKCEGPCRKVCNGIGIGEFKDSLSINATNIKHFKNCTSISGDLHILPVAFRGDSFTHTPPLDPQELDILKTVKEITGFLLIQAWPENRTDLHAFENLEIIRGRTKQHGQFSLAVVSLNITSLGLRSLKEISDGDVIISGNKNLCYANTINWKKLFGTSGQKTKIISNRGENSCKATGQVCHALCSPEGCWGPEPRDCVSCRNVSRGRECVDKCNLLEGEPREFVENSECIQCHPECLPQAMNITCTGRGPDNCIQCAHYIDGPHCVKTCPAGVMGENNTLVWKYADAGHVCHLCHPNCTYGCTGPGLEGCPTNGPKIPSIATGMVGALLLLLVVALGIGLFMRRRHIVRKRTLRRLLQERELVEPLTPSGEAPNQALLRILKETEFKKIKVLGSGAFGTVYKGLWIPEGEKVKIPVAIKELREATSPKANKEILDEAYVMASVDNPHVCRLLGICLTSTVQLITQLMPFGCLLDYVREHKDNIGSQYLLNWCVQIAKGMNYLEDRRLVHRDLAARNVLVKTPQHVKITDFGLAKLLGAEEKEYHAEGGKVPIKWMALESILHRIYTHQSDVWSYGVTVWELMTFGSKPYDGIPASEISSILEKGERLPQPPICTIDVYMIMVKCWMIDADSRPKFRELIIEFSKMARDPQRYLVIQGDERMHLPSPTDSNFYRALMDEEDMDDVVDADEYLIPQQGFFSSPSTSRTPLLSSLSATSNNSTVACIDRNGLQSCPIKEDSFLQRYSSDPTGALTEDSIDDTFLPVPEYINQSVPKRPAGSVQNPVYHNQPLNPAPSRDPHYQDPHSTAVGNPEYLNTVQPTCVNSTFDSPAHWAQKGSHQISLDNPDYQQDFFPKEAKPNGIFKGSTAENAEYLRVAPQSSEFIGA
The target in test [5] is T2, NUAK family SNF1-like kinase 2 (Homo sapiens) (UniProt Q9H093).
T2 sequence (whole entry): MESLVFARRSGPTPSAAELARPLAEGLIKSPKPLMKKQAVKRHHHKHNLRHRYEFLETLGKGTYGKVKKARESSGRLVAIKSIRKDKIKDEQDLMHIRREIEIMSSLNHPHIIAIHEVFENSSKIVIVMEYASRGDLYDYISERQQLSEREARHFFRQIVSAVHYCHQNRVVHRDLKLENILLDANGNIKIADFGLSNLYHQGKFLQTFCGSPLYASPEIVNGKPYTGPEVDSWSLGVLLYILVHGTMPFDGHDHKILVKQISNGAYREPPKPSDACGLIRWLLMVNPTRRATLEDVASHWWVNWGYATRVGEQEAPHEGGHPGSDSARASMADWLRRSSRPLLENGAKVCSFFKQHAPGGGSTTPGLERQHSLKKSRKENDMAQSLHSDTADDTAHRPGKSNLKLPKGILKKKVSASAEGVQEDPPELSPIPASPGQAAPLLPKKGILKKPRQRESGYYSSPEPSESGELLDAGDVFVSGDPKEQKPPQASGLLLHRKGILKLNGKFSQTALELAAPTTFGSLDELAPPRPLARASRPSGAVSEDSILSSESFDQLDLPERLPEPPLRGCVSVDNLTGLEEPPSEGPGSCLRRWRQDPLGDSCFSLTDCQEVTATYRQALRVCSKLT
To be noted: Compound concentration 1000.0 nM.

Test [6] deals with Hepatocyte growth factor receptor (Homo sapiens), P08581 [M1250T]. To be noted: Compound concentration 1000.0 nM.
In test [7] the target is 5-hydroxytryptamine receptor 1D (Homo sapiens) (UniProt P28221). To be noted: Compound concentration 10.0 uM.
Sequence of 5-hydroxytryptamine receptor 1D (Homo sapiens) (P28221 whole entry): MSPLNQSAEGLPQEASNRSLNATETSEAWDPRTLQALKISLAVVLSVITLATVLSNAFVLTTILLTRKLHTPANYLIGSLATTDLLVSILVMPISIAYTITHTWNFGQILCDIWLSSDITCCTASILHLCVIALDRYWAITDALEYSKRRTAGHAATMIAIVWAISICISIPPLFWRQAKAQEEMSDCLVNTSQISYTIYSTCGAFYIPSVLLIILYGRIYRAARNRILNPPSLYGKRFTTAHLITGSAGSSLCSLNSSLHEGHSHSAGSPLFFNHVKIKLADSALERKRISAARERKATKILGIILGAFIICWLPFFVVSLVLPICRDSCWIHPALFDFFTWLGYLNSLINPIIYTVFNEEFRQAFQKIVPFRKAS
For test [8], the target named is T3, Calcium/calmodulin-dependent protein kinase type IV (Homo sapiens) (UniProt Q16566).
T3 sequence (whole entry): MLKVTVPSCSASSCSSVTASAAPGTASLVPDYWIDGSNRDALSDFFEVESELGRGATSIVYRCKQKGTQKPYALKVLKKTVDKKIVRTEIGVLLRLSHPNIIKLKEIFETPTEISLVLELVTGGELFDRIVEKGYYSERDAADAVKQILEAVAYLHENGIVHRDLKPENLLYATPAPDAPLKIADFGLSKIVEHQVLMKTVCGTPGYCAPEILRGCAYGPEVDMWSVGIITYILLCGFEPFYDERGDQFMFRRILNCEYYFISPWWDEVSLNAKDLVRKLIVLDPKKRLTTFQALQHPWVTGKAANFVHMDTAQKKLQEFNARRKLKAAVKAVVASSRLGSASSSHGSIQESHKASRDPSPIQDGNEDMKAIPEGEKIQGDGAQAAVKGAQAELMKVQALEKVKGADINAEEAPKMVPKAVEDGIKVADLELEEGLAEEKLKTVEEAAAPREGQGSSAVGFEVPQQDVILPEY
To be noted: Compound concentration 1000.0 nM.

In test [9] the target is T4, Interleukin-1 receptor-associated kinase 4 (Homo sapiens) (UniProt Q9NWZ3).
T4 sequence (whole entry): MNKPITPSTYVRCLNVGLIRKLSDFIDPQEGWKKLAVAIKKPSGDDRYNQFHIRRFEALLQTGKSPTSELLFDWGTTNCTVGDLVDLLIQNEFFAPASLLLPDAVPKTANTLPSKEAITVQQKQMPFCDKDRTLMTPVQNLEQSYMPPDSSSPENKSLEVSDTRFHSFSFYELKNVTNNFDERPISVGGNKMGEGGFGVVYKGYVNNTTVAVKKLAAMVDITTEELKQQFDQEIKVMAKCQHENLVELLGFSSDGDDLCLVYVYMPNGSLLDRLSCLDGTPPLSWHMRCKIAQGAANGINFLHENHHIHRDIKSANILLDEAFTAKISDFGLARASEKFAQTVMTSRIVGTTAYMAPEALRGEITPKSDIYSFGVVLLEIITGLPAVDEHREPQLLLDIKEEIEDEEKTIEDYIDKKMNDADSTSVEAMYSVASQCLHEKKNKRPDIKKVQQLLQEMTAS
To be noted: Compound concentration 1000.0 nM.

In test [10] the target is T5, Serine/threonine-protein kinase Sgk2 (Homo sapiens) (UniProt Q9HBY8).
T5 sequence (whole entry): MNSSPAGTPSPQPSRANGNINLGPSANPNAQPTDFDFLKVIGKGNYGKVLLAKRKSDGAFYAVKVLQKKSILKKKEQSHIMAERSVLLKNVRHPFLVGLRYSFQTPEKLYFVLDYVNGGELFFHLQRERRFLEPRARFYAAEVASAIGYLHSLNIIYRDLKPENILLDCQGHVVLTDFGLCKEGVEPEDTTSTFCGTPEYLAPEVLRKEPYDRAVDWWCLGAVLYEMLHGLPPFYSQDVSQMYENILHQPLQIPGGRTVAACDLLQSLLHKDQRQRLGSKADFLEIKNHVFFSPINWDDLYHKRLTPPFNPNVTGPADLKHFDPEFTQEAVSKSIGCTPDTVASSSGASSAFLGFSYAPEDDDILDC
The note with it: Compound concentration 1000.0 nM.

Sequence of 5'-AMP-activated protein kinase catalytic subunit alpha-1 (Q13131 whole entry): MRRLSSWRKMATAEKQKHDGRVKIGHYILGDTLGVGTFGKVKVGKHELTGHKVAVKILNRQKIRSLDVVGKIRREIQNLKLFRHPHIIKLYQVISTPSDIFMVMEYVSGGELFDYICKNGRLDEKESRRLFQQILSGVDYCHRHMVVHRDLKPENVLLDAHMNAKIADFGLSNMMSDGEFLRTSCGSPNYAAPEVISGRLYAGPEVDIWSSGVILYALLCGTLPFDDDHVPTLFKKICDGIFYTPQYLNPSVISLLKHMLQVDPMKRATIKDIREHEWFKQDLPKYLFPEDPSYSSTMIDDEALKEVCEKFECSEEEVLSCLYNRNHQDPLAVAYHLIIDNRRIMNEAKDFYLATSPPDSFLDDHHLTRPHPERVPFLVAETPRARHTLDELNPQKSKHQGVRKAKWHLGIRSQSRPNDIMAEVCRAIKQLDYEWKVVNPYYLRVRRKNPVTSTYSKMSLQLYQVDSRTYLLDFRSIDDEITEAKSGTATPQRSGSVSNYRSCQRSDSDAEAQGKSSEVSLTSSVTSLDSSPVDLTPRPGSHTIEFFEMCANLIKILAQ

For `CCc1ccccc1C(=O)Nc1n[nH]c2c(C)c(F)c(C3C(C#N)=C(C)N(C)C(C)=C3C#N)cc12` [BAY-3827], the residual activity in test [1] was 100%; in test [2] it was 0%; in [4] it was 52%; in test [5] it was 40%; in [6], 25%; in [8], 56%. In addition, the residual activity in [9] and in [10] was 100% in each case. Besides, the IC50 in test [3] came out at 150 nM. In addition, in [7], the inhibition was 4.65%.

With `CC1=C(C#N)C(c2ccc3c(c2)c(NC(=O)c2ccccc2C)nn3C)C(C#N)=C(C)N1` [BAY-974], the residual activity was 94% in test [1]; 74% in [2]; 88% in [4]; 81% in [5]; 27% in test [6]; 70% in test [8]. Moreover, the residual activity in [9] is 7.5%; in [10], 73%. In [3], the IC50 was > 30000 nM (not active). The inhibition in [7] is 2.45%.

A word on the residual activity: it is the signal under treatment as a percentage of the control signal. As a reminder, the IC50 is the concentration at which inhibition is half-maximal. The low end stands for higher potency, the high end for lower potency. In general, inhibition refers to the relative decrease from the control value, in per cent.
